Common to all, as to test: Serum MIC, broth micro-dilution
What all share (type): cell-based
For orientation: In broth dilution the organism is exposed to a series of concentrations in liquid medium.

Assay [1] relates to Acinetobacter baumannii ATCC 17978. The following applies: Acinetobacter baumannii, ATCC17978. Summed up: (§1)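 CLSI broth micro-dilution MIC run in 50% v/v cation-adjusted Mueller Hinton II broth plus 50% v/v mouse serum. Compounds were serially 2-fold diluted (10 concentrations) from a top concentration of 64, 4, 0.5 or 0.13 μg/mL; inoculum at final OD600 0.0005, incubated 35° C for 22 hours.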

Assay [2] has as its system Escherichia coli strain ATCC 25922. The following applies: Escherichia coli, ATCC25922, read-out: E. coli 25922 Serum MIC. An outline of the steps:
as §1

The test system of assay [3] is Klebsiella pneumoniae ATCC 700603. The following applies: Klebsiella pneumoniae, ATCC700603. An outline of the steps: as §1
Assay [4] relates to Pseudomonas aeruginosa PA01. The following applies: Pseudomonas aeruginosa, PA01, read-out: P. aeruginosa 01 Serum MIC. Summed up:
as §1

[5] abbreviates: 50% v/v mouse serum in Mueller Hinton II cation adjusted Broth, 35° C., 22 hours, Table 4, read-out: A. baumanii 17978 Serum MIC.
The mark [6] stands for this setting: 50% v/v mouse serum in Mueller Hinton II cation adjusted Broth, 35° C., 22 hours, Table 5, read-out: Acinetobacter baumanii 17978 Serum MIC.
The mark [7] stands for this setting: 50% v/v mouse serum in Mueller Hinton II cation adjusted Broth, 35° C., 22 hours, Table 4.
[8] abbreviates: 50% v/v mouse serum in Mueller Hinton II cation adjusted Broth, 35° C., 22 hours, Table 4, read-out: K pneumoniae 700603 Serum MIC.
[9] abbreviates: 50% v/v mouse serum, compounds of Table 1, Table 7.

One may read the MIC as the lowest concentration that inhibits growth of the organism.

SMILES strings stand for the structures. Values after ≈ are worked out from the molar mass of the structure shown. Like-named read-outs stand apart in the source and are kept apart here.

For the compound `Cc1nc(-c2ccc(C(C)(C)C)cc2)nc(N)c1C(=O)N[C@@H](CCNS(N)(=O)=O)C(=O)N(C)[C@@H]1C(=O)N[C@@H](C)C(=O)N[C@H](C(=O)O)Cc2ccc(OC[C@H](O)CN)c(c2)-c2cc1cc(OC[C@H](O)CN)c2O` [Example 76, (8S,11S,14S)-14-[[(2S)-2-[[4-amino-2-(4-tert-butylphenyl)-6-methyl-pyrimidine-5-carbonyl]amino]-4-(sulfamoylamino)-butanoyl]-methyl-amino]-3,17-bis[(2R)-3-amino-2-hydroxy-propoxy]-18-hydroxy-11-methyl-10,13-dioxo-9,12-diazatricyclo-[13.3.1.12,6]icosa-1(18),2(20),3,5,15(19), 16-hexaene-8-carboxylic acid], the MIC in assay [1] (setting [5]) is 24 µM (≈ 24.5 µg/mL); in assay [1] (setting [6]) it was 24 µM (≈ 24.5 µg/mL); in assay [2] (setting [7]), 2 µM (≈ 2.04 µg/mL); in assay [3] (setting [8]), 1.5 µM (≈ 1.53 µg/mL); in assay [4] (setting [7]) it was 16 µM (≈ 16.4 µg/mL).

Consider `Cc1nc(-c2ccc(C(C)(C)C)cc2)nc(C)c1C(=O)N[C@@H](CCN)C(=O)N(C)[C@@H]1C(=O)N[C@@H](C)C(=O)N[C@H](C(=O)O)Cc2ccc(OCCN)c(c2)-c2cc1cc1[nH]c(=O)oc21` (racemic) [Example 649], for which the MIC was determined as 64 µM (≈ 55.3 µg/mL) in assay [1] (50% v/v mouse serum, compounds of Table 1, Table 7, read-out: A. baumanii 17978 Serum MIC); 1 µM (≈ 0.864 µg/mL) in assay [2] (setting [9]); 2 µM (≈ 1.73 µg/mL) in assay [3] (50% v/v mouse serum, compounds of Table 1, Table 7, read-out: K. pneumoniae 700603 Serum MIC); 64 µM (≈ 55.3 µg/mL) in assay [4] (setting [9]).

Turning to `Cc1nc(-c2ccc(C3(C)CC3)cc2)nc(N)c1C(=O)N[C@@H](CCN)C(=O)N(C)[C@@H]1C(=O)N[C@@H](C)C(=O)N[C@H](C(=O)O)Cc2ccc(OC[C@H](O)CN)c(c2)-c2cc1cc(OC[C@H](O)CN)c2O` [Example 21], the MIC stood at 16 µM (≈ 15.1 µg/mL) in assay [1] (setting [5]); 16 µM (≈ 15.1 µg/mL) in assay [1] (setting [6]); 0.38 µM (≈ 0.358 µg/mL) in assay [2] (setting [7]); 0.25 µM (≈ 0.235 µg/mL) in assay [3] (setting [8]); 48 µM (≈ 45.2 µg/mL) in assay [4] (setting [7]).

In the case of `Cc1nc(-c2ccc(CC(C)(C)C)cc2)nc(N)c1C(=O)N[C@@H](CNS(N)(=O)=O)C(=O)N(C)[C@@H]1C(=O)N[C@@H](C)C(=O)N[C@H](C(=O)O)Cc2ccc(OC[C@H](O)CN)c(c2)-c2cc1cc(OC[C@H](O)CN)c2O` [Example 42, (8S,11S,14S)-14-[[(2S)-2-[[4-amino-2-[4-(2,2-dimethyl-propyl)phenyl]-6-methyl-pyrimidine-5-carbonyl]amino]-3-(sulfamoylamino)-propanoyl]-methyl-amino]-3,17-bis[(2R)-3-amino-2-hydroxy-propoxy]-18-hydroxy-11-methyl-10,13-dioxo-9,12-diazatri-cyclo[13.3.1.12,6]icosa-1(18),2(20),3,5,15(19), 16-hexaene-8-carboxylic acid], the minimal inhibitory concentration (MIC) in assay [1] (setting [5]) came to 8 µM (≈ 8.18 µg/mL); in assay [1] (setting [6]), 8 µM (≈ 8.18 µg/mL); in assay [2] (setting [7]) it was 0.5 µM (≈ 0.511 µg/mL); in assay [3] (setting [8]), 0.75 µM (≈ 0.767 µg/mL); in assay [4] (setting [7]), 4 µM (≈ 4.09 µg/mL).

As for `C[C@@H]1NC(=O)[C@@H](N(C)C(=O)[C@H](CCN)NC(=O)c2cnn(-c3ccc(OCCC(C)(C)C)cc3)c(=O)c2)c2cc(OC[C@H](O)CN)c(O)c(c2)-c2cc(ccc2OC[C@H](O)CN)C[C@@H](C(=O)O)NC1=O` [Example 22, (8S,11S,14S)-18-hydroxy-11-methyl-14-[methyl-[(2S)-4-amino-2-[[1-[4-(3,3-dimethylbutoxy)-phenyl]-6-oxo-pyridazine-4-carbonyl]amino]-butanoyl]amino]-10,13-dioxo-3,17-bis[(2R)-3-amino-2-hydroxy-propoxy]-9,12-diazatricyclo-[13.3.1.12,6]icosa-1(18),2(20),3,5,15(19), 16-hexaene-8-carboxylic acid], the MIC in assay [1] (setting [5]) was 32 µM (≈ 31.2 µg/mL); in assay [1] (setting [6]) it was 32 µM (≈ 31.2 µg/mL); in assay [2] (setting [7]) it was 1 µM (≈ 0.974 µg/mL); in assay [3] (setting [8]) it was 0.5 µM (≈ 0.487 µg/mL); in assay [4] (setting [7]) it was 32 µM (≈ 31.2 µg/mL).
